Assays:
Ras farnesyl transferase = molecular target: T1, Ras farnesyl transferase (Homo sapiens, UniProt P49354+P49356); experiment: Ras farnesyl transferase inhibiting activity (filter-binding, tritium-farnesylpyrophosphate, Ras-CVLS substrate); format: biochemical; settings: recombinant Ras farnesyl transferase, 30 minutes at 37° C., read-out: Ftase IC50
T1 construct: made in house

[1] = test system: intracellular Ras farnesyl transferase, Rat2 cell line; experiment: Intracellular Ras farnesyl transferase inhibiting activity in transformed Rat2 cells (35S-methionine labelling, Y13-259 immunoprecipitation, SDS-PAGE); format: cell-based; settings: Rattus norvegicus; transformed Rat2 fibroblast cell line; concentration inhibiting 50% of farnesyl binding of Ras protein; read-out: Ftase CIC50
Outline: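 Rat2 fibroblasts transformed with H-Ras, or with H-Ras carrying the K-Ras polybasic lysine C-terminus, were treated with compound (1% DMSO). After 4 h they were labelled for 20 h with 150 μCi/ml 35S-methionine. Lysates were immunoprecipitated with Y13-259, run on 13.5% SDS-PAGE and autoradiographed; CIC50 is the concentration halving farnesylated versus unfarnesylated Ras band intensity.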

[2] = molecular target: T2, Geranylgeranyl transferase (Bos taurus, UniProt P29702+Q5EAD5); experiment: Geranylgeranyl transferase inhibiting activity (geranylgeranyl pyrophosphate, Ras-CVIL substrate); format: biochemical; settings: geranylgeranyl transferase purified from bovine brain, read-out: GGtase IC50
T2 construct: Geranylgeranyl transferase was purified from bovine brain; from tissue; host or cells: bovine brain
Outline: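 Bovine-brain-purified enzyme run as in the farnesyl transferase assay, with geranylgeranyl pyrophosphate and Ras-CVIL substrate protein under similar reaction conditions.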

| Structure (SMILES) | IC50 (Ras farnesyl transferase) [µM] | IC50 [1] [µM] | IC50 [2] [µM] |
| --- | --- | --- | --- |
| COCCOCN1C(=O)N(CCCc2cncn2Cc2ccc(C#N)cc2)C(=O)C1(C)c1cccc2ccccc12 (stereo not drawn) [Compound 50, 4-(5-{3-[3-(2-methoxy-ethoxymethyl)-4-methyl-4-naphthalen-1-yl-2,5-dioxo-imidazolidin-1-yl]-propyl}-imidazol-1-ylmethyl)-benzonitrile] | 0.055 | < 20 | > 10 |
| CC1(c2cccc3ccccc23)C(=O)N(CCCc2cncn2Cc2ccc(C#N)cc2)C(=O)N1Cc1ccccc1 (stereo not drawn) [Compound 53, 4-(5-{3-[3-benzyl-4-methyl-4-naphthalen-1-yl-2,5-dioxo-imidazolidin-1-yl]-propyl}-imidazol-1-ylmethyl)-benzonitrile] | 0.065 | < 20 | > 10 |
| CC1(c2cccc3ccccc23)C(=O)N(Cc2cncn2Cc2ccc(C#N)cc2)C(=O)N1Cc1cccc(C#N)c1 (stereo not drawn) [Compound 63] | 0.05 | < 20 | > 10 |
| O=C1CN(c2cccc3ccccc23)C(=O)N1Cc1cncn1Cc1ccc(Cl)cc1 [Compound 73, 3-[3-(4-chloro-benzyl)-3H-imidazol-4-ylmethyl]-1-naphthalen-1-yl-imidazolidin-2,4-dione] | 0.8 | < 10 | > 10 |
| CCOC(=O)CN1C(=O)N(Cc2cncn2Cc2ccc(C#N)cc2)C(=O)C1(C)c1cccc2ccccc12 (stereo not drawn) [Compound 62, {3-[3-(4-cyano-benzyl)-3H-imidazol-4-ylmethyl]-5-methyl-5-naphthalen-1-yl-2,4-dioxo-imidazolidin-1-yl)-acetic acid ethyl ester] | 0.05 | < 20 | > 10 |
| N#Cc1ccc(Cn2cncc2CN2C(=O)C(CC(=O)O)N(Cc3cccc4ccccc34)C2=O)cc1 (stereo not drawn) [Compound 78, {1-[3-(4-cyano-benzyl)-3H-imidazol-4-ylmethyl]-3-naphthalen-1-ylmethyl-2,5-dioxo-imidazolidin-4-yl}-acetic acid] | 0.1 | < 20 | > 10 |
| CC1(c2cccc3ccccc23)C(=O)N(CCCn2ccnc2)C(=O)N1Cc1cccc(Br)c1 (stereo not drawn) [Compound 20, 1-(3-bromo-benzyl)-3-(3-imidazol-1-yl-propyl)-5-methyl-5-naphthalen-1-yl-imidazolidin-2,4-dione] | 0.3 | < 20 | > 10 |
| CSCCC1SCCN1C(=O)CN1C(=O)N(CCCc2cnc[nH]2)C(=O)C1(C)c1cccc2ccccc12 (stereo not drawn) [Compound 12, 3-[3-(3H-imidazol-4-yl)-propyl]-5-methyl-1-{2-[2-(2-methylsulfanyl-ethyl)-thiazolidin-3-yl]-2-oxo-ethyl}-5-naphthalen-1-yl-imidazolidin-2,4-dione] | 5.5 | < 20 | > 10 |
| CC1(c2cccc3ccccc23)C(=O)N(CCCn2ccnc2)C(=O)N1Cc1c(F)c(F)c(F)c(F)c1F (stereo not drawn) [Compound 17, 1-(pentafluoro-benzyl)-3-(3-imidazol-1-yl-propyl)-5-methyl-5-naphthalen-1-yl-imidazolidin-2,4-dione] | 1.5 | < 20 | > 10 |
| CC1(c2cccc3ccccc23)C(=O)N(CCCn2ccnc2)C(=O)N1Cc1ccc(C(=O)O)cc1 (stereo not drawn) [Compound 39, 4-[3-(3-imidazol-1-yl-propyl)-5-methyl-5-naphthalen-1-yl-2,4-dioxo-imidazolidin-1-ylmethyl]-benzoic acid] | 0.2 | < 20 | > 10 |
| N#Cc1ccc(Cn2cncc2CN2C(=O)[C@H](CC(=O)N3CCOCC3)N(Cc3cccc4ccccc34)C2=O)cc1 [Compound 81, 4-{(5S)-[4-(2-morpholin-4-yl-2-oxo-ethyl)-3-naphthalen-1-ylmethyl-2,5-dioxo-imidazolidin-1-ylmethyl]-imidazol-1-ylmethyl}-benzonitrile] | 0.11 | < 20 | > 10 |
| CN1C(=O)N(CCCc2cncn2Cc2ccc(C#N)cc2)C(=O)C1(C)c1cccc2ccccc12 (stereo not drawn) [Compound 46, 4-{5-[3-(3-methyl-4-methyl-4-naphthalen-1-yl-2,5-dioxo-imidazolidin-1-yl)-propyl]-imidazol-1-ylmethyl}-benzonitrile] | 0.044 | < 20 | > 10 |
| COC(=O)C[C@H]1C(=O)N(Cc2cncn2Cc2ccc(C#N)cc2)C(=O)N1Cc1cccc2ccccc12 [Compound 79, {1-[3-(4-cyano-benzyl)-3H-imidazol-4-ylmethyl]-3-naphthalen-1-ylmethyl-2,5-dioxo-imidazolidin-(4S)-yl}-acetic acid methyl ester] | 0.04 | < 10 | > 10 |
